Legend:
Assay type in all cases: cell-based, human
[1] = system: T2-cells loaded with peptide; assay: 51Cr-release assay for CTL-mediated cytotoxicity; details: standard chromium release assay; FIG. 5
Description: Conventional ^51Cr-release assays for CTL-mediated cytotoxicity were carried out as described elsewhere. Target cells were T2-cells (ATCC), HLA-A2^+ melanoma cell lines (FM3 and FM93)
In this experiment Arginase specific T cells were incubated 4 h with either Cr-labeled melanoma cell lines FM3 or FM93 at different effector:target ratios. Both cell lines express intracellular Arginase.

[2] = system: peripheral blood mononuclear cells (PBMC); assay: IFN-gamma ELISPOT secretion assay on PBMC (Example 1)
[3] = system: PBMCs from two healthy donors and one cancer patient; assay: Intracellular staining for IFNγ and TNFα release in PBMCs
Description: Flow cytometry analysis was performed on a FACSCanto™ II (BD Biosciences, San Jose CA, USA). Intracellular staining of cell cultures was performed after the cells were stimulated with 20-mere peptides for 5 hours or 30-mere peptides for 8h (BD GolgiPlug™ cat. 555029, was added after the first hour). The cells were then stained for surface markers, then washed and permeabilized by using Fixation/Permeabilization and Permeabilization Buffer (eBioscience, cat. 00-5123-43), according to manufacturer's instructions. Antibodies used: IFNγ-APC (cat. 341117), TNFα-BV421 (cat. 562783), CD4-FITC (cat. 347413), CD8-PerCP (cat. 345774) (all from BD Biosciences). Dead cells were stained using FVS510 (564406, BD Biosciences) according to manufacturer's instructions.
To investigate which types of T cells reacted to the peptide epitopes in the hot-spot region, we performed intracellular staining for IFNγ and TNFα release in PBMCs from two healthy donors and one cancer patient, which had shown responses against the Arg(161-190) peptide in IFNγ ELISPOT.

[4] = system: PBMCs from cancer patients; assay: IFNγ ELISPOT with HLA Class I / Class II blocking; details: anti-Class I W6/32 or anti-Class II Tü39; FIG. 11B
Description: PBMCs from healthy donors or cancer patients were stimulated with 80 μg of arginase-derived peptides and 120 U/ml IL-2 (Peprotech, London, UK, cat. 200-02) for a week. 4-6×10^5 PBMCs were then placed in the bottom of ELISPOT plate (nitrocellulose bottomed 96-well plates by MultiScreen MAIP N45; Millipore, cat. MSIPN4W50) pre-coated with IFN-y capture Ab (Mabtech, cat. 3420-3-1000) and 1-10 μg of arginase derived peptides were added. PBMCs from each patient and donors were set up in duplicates or triplicates for peptide and control stimulations. Cells were incubated in ELISPOT plates in the presence of an antigen for 14-16 hours after which they are washed off and secondary biotinylated Ab (Mabtech, cat. 3420-6-1000) was added. After 2 h incubation unbound secondary antibody was washed off and streptavidin conjugated alkaline phosphatase (AP) (Mabtech, cat. 3310-10) was added for 1 h. Next, unbound conjugated enzyme is washed off and the assay is developed by adding BCIP/NBT substrate (Mabtech, cat. 3650-10). Developed ELISPOT plates were analysed on CTL ImmunoSpot S6 Ultimate-V analyzer using Immunospot software v5.1. Responses were calculated as the difference between average numbers of spots in wells stimulated with Arginase-1 peptides and control wells. […]

[5] = system: PBMCs from healthy donors or cancer patients; assay: IFNγ ELISPOT on PBMCs after one week peptide and IL-2 stimulation (Example 2); details: selected PBMCs from cancer patients and healthy donors; one week stimulation with IL-2; FIG. 10B, 10C
Description: PBMCs from healthy donors or cancer patients were stimulated with 80 μg of arginase-derived peptides and 120 U/ml IL-2 (Peprotech, London, UK, cat. 200-02) for a week. 4-6×10^5 PBMCs were then placed in the bottom of ELISPOT plate (nitrocellulose bottomed 96-well plates by MultiScreen MAIP […]; Millipore, cat. MSIPN4W50) pre-coated with IFN-y capture Ab (Mabtech, cat. 3420-3-1000) and 1-10 μg of arginase derived peptides were added. PBMCs from each patient and donors were set up in duplicates or triplicates for peptide and control stimulations. Cells were incubated in ELISPOT plates in the presence of an antigen for 14-16 hours after which they are washed off and secondary biotinylated Ab (Mabtech, cat. 3420-6-1000) was added. After 2 h incubation unbound secondary antibody was washed off and streptavidin conjugated alkaline phosphatase (AP) (Mabtech, cat. 3310-10) was added for 1 h. Next, unbound conjugated enzyme is washed off and the assay is developed by adding BCIP/NBT substrate (Mabtech, cat. 3650-10). Developed ELISPOT plates were analysed on CTL ImmunoSpot S6 Ultimate-V analyzer using Immunospot software v5.1. Responses were calculated as the difference between average numbers of spots in wells stimulated with Arginase-1 peptides and control wells. We divided the entire arginase-1 protein sequence into overlapping 20-amino-acid-long peptides, generating a library of 31 peptides covering the whole sequence (SEQ ID NOs 18-48)). Each peptide in the library overlapped with the first 10 amino acids of the following peptide. Using this arginase peptide library and the IFNγ ELISPOT assay, we next screened PBMCs from melanoma patients and healthy donors for spontaneous responses (FIGS. 9A and 9B). The PBMCs were stimulated for one week with a pool of 3-4 adjacent 20-mer arginase library peptides and low-dose IL-2 (120 U/mL). They were then set up for an IFNγ ELISPOT assay to screen for responses against each 20-mer peptide separately. […] Among these overlapping peptides, […]-200), and Arg(191-210) spanned a 50-amino-acid-long region that was deemed a hot-spot region since nearly all patients harbored a response against one or more of these peptides (FIG. 9A). The selected eight peptides were further used to screen for spontaneous immune responses against arginase-1 in PBMCs from eight healthy donors using IFNγ ELISPOT. […] Since we most frequently observed responses against arginase-1 peptides from the hot-spot region, we next analyzed whether longer peptides covering the same sequence could be used instead of four 20-mers. […] We then divided the arginase-1 hot-spot region into two 30-mer peptides that overlapped by 10 amino acids (peptides labelled by reference to start and end position): […]-190) and […]-210). These 30-mer peptides were used to check for responses in selected PBMCs from cancer patients and healthy donors, which had previously shown responses against the 20-mer hot-spot peptides. The PBMCs were stimulated for one week with either […]-190) or […]-210) in the presence of IL-2, and were then used in IFNγ ELISPOT.

[6] = system: arginase-specific CD4+ T-cell culture; assay: Recognition by arginase-specific CD4+ T-cell culture (ArgShort-stimulated)
Description: PBMCs from healthy donors or cancer patients were stimulated with 80 μg of arginase-derived peptides and 120 U/ml IL-2 (Peprotech, London, UK, cat. 200-02) for a week. 4-6×10^5 PBMCs were then placed in the bottom of ELISPOT plate (nitrocellulose bottomed 96-well plates by MultiScreen MAIP N45; Millipore, cat. MSIPN4W50) pre-coated with IFN-y capture Ab (Mabtech, cat. 3420-3-1000) and 1-10 μg of arginase derived peptides were added. PBMCs from each patient and donors were set up in duplicates or triplicates for peptide and control stimulations. Cells were incubated in ELISPOT plates in the presence of an antigen for 14-16 hours after which they are washed off and secondary biotinylated Ab (Mabtech, cat. 3420-6-1000) was added. After 2 h incubation unbound secondary antibody was washed off and streptavidin conjugated alkaline phosphatase (AP) (Mabtech, cat. 3310-10) was added for 1 h. Next, unbound conjugated enzyme is washed off and the assay is developed by adding BCIP/NBT substrate (Mabtech, cat. 3650-10). Developed ELISPOT plates were analysed on CTL ImmunoSpot S6 Ultimate-V analyzer using Immunospot software v5.1. Responses were calculated as the difference between average numbers of spots in wells stimulated with Arginase-1 peptides and control wells.
Arginase-specific T cell culture were established by stimulation of cancer patient PBMC with irradiated ArgShort (SEQ ID NO 9) peptide-loaded autologous DC or PBMCs. The following day IL-7 and IL-12 (PeproTech, London, UK, cat. 200-07-10 and 200-12) were added. Stimulation of the cultures were carried out every 8 days with ArgShort peptide loaded irradiated autologous DC followed by ArgShort peptide-loaded irradiated autologous PBMC. The day after peptide stimulation IL-2 […]. After 5 stimulations arginase-specific T cells were enriched using TNF-α cell enrichment kit (MiltenyiBiotec, cat. 130-091-269).
Flow cytometry analysis was performed on a FACSCanto™ II (BD Biosciences, San Jose CA, USA). […]

Row | Sequence | killing of peptide-loaded target cells by CD8 positive culture [1] | specific T-cell responses against Arg-derived peptide ([2]; IFN-gamma ELISPOT, PBMC from six melanoma patients, FIG. 1) | Immune responses against Arg 8 peptide ([2]; PBMC from 6 cancer patients, specific cells/3×10e5 cells, FIG. 2) | TNFα release from CD4+ T cells ([3]; 8-hour incubation with peptide, FIG. 11A) | response from CD8+ T cells ([3]; some samples, data not shown) | IFNγ release in response to peptide on blocking HLA Class I or Class II [4] | IFNγ ELISPOT responses against longer hot-spot peptides [5] | TNFα release from CD4+ T cells, intracellular staining ([6]; 8 hours of peptide stimulation, FIG. 11C right) | recognition by T-cell culture specific against the minimal arginase epitope ([6]; IFNγ ELISPOT and intracellular staining, FIG. 11C)
1 | IVYIGLRDV (Peptide fragment of human Arginase 1) [Arg8, positions 174-182 of human Arginase 1] | can kill target cells loaded with Arg8 | Strong responses | Very strong responses were frequently detected | – | – | – | – | – | –
2 | GFSWVTPCISAKDIVYIGLRDVDPGEHYIL (Peptide fragment of human Arginase 1) [Arg(161-190), 30-mer, positions 161-190 of human Arginase 1] | – | – | – | detected TNFα release from CD4+ T cells | minor response | partially blocked the IFNγ release | high responses | TNFα release from CD4+ T cells | recognized

From US11981944B2, “Immunogenic arginase peptides” (IO Biotech ApS, priority 2016, dated 2024)
